Consider eleven molecules from patent US10065943B2, “Pyrrolidine derivatives as angiotensin II type 2 antagonists” (NOVARTIS AG, priority 2015, dated 2018).

The assay deals with T1, human AT2 receptor (Homo sapiens, UniProt P50052).
T1 construct: membranes prepared in house
T1 sequence (P50052 1-363): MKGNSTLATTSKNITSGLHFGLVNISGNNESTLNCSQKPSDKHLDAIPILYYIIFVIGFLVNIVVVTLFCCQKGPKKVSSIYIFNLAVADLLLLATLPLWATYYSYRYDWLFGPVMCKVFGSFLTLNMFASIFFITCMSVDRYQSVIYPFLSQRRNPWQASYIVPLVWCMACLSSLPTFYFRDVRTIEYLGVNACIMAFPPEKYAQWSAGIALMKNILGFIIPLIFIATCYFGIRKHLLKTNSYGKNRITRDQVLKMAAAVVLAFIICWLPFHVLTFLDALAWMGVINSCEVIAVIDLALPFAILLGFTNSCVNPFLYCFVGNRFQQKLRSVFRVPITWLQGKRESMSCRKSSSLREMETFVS
Nature of the assay: AT2 receptor binding ([125I]CGP 42112A displacement, CHO-K1 membranes). The note with it: [125I]CGP 42112A 0.05 nM, membranes of CHO-K1 cells expressing human AT2 receptor; Ki from IC50 by Cheng-Prussoff equation; read-out: Ki. The source says:
Reagents were purchased from Sigma-Aldrich, unless otherwise specified. Dialyzed fetal bovine serum (FBS) was from Life Technologies (cat. no. 10073772). Valiscreen® human angiotensin AT2 receptor cell line (cat. no. ES-070-C), [^125I]CGP 42112A (cat. no. NEX324025UC) and MicroScint™ 40 (cat. no. 6013641) were purchased from PerkinElmer. CGP 42112A (cat. no. 2569) and PD 123,319 ditrifluoroacetate (cat. no. 1361) were from Tocris Biosciences.
• 1. Growth medium • EX-CELL® CHO DHFR^− medium • 10% FBS, dialysed • 1 mM sodium pyruvate • 2 mM L-glutamine • 2. Harvesting buffer • PBS • 2 mM EDTA • 3. Suspension buffer • 50 mM Tris-HCl, pH 7.4 • 10 mM EDTA • 4. Resuspension buffer • 50 mM Tris-HCl, pH 7.4 • 0.1 mM EDTA • 0.1% sucrose • 5. Binding assay buffer • 50 mM Tris-HCl, pH 7.4 • 5 mM MgCl2 • 1 mM EDTA • 0.1% gelatin • 6. Wash buffer • 50 mM Tris-HCl, pH 7.4 Procedure for Membrane Preparation • Valiscreen® CHO-K1 cells stably expressing the human AT2 receptor were cultured in growth medium. • Cells were seeded into T-175 flasks and grown to 70-80% confluence. • Medium was removed from confluent flasks and cells were washed with warm PBS. • Cells were harvested by incubating with harvesting buffer for 10 min at 37° C., and then transferred to a centrifuge tube on ice. • Cells were centrifuged at 200 g for 5 min at 4° C. • Cell pellets were homogenised in ice-cold suspension buffer. • Homogenates were centrifuged at 40,000 g for 15 min at 4° C. • Pellets were resuspended in ice-cold resuspension buffer and centrifuged at 40,000 g for 15 min at 4° C. • Final pellets were homogenised in ice-cold resuspension buffer. • Protein concentrations were determined by BCA assay method with BSA as standard. Compound Preparation
Compounds were prepared from 10 mM stock solutions in 100% DMSO. Dilutions were made using electronic multichannel pipettes.
• Compounds dilutions were prepared in 100% DMSO at 100× final assay concentration. • Compounds were diluted in 100% DMSO to the appropriate maximal concentration. • 30 μL compound was added to row A. • 21.6 μL of 100% DMSO was added to rows B-H. • Transfer 10 μL from row A into row B (half log dilution). • Transfer 10 μL from row B into row C (half log dilution). • Transfer 10 μL from row C into row D (half log dilution). • Transfer 10 μL from row D into row E (half log dilution). • Transfer 10 μL from row E into row F (half log dilution). • Transfer 10 μL from row F into row G (half log dilution). • Transfer 10 μL from row G into row H (half log dilution). Working Plate Preparation (96-Well Plate) • Compounds were diluted 10-fold in assay buffer. • 10 μL compound solution from dose plate was transferred to corresponding well of working plate. • 90 μL assay buffer was added to the wells of working plate. • Working solutions contained 10% DMSO in assay buffer (1% DMSO final assay concentration). Controls • Total binding (high control) was determined in the absence of unlabelled ligand. A solution of 10% DMSO in assay buffer was prepared. • Non-specific binding (low control) was determined in the presence of a vast excess (10 μM) of PD 123,319. 1 mM stock solution of PD 123,319 in water was diluted 10-fold with 10% DMSO in assay buffer. Assay Plate Preparation (96-Well Plate)
15 μL compound solution was transferred to duplicate wells of assay plate. 5 compounds were tested per plate. 15 μL control solutions were transferred to columns 1 and 12 of assay plate.
One may read the Ki as the equilibrium dissociation constant of an inhibitor or competing ligand from its target. For the molecule `CN(C)S(=O)(=O)NC(=O)[C@@H]1C[C@H](N2CCCCc3ccccc32)CN1C(=O)C(c1ccccc1)c1ccccc1` [Compound 44, (2S,4S)—N—(N,N-Dimethylsulfamoyl)-1-(2,2-diphenylacetyl)-4-(2,3,4,5-tetrahydro-1H-benzo[b]azepin-1-yl)pyrrolidine-2-carboxamide], the Ki amounted to 16.9 nM.

`O=C(O)[C@@H]1C[C@H](N2CCOc3ccccc3C2)CN1C(=O)C(c1ccccc1)c1ccccc1` [Compound 19, (2S,4S)-4-(2,3-Dihydrobenzo[f][1,4]oxazepin-4(5H)-yl)-1-(2,2-diphenylacetyl)pyrrolidine-2-carboxylic acid]: the Ki is 99 nM.

In the case of `C[C@@]1(C(=O)NS(=O)(=O)C2CC2)C[C@H](N2CCCOc3cc(F)c(F)cc32)CN1C(=O)C(c1ccccc1)c1ccccc1` [Compound 42b, (2S,4S)—N-(cyclopropylsulfonyl)-4-(7,8-difluoro-3,4-dihydrobenzo[b][1,4]oxazepin-5(2H)-yl)-1-(2,2-diphenylacetyl)-2-methylpyrrolidine-2-carboxamide], the Ki stood at 11 nM.

Turning to `O=C(O)[C@@H]1C[C@@H](N2CCCOc3ccc(F)cc32)CN1C(=O)C(c1ccccc1)c1ccccc1` [Compound 25, (2S,4R)-1-(2,2-Diphenylacetyl)-4-(7-fluoro-3,4-dihydrobenzo[b][1,4]oxazepin-5(2H)-yl)pyrrolidine-2-carboxylic acid], the Ki was found to be 1.6 nM.

`O=C(O)[C@@H]1C[C@@H](N2CCCOc3cc(F)c(F)cc32)CN1C(=O)C(c1ccccc1)c1ccccc1` [Compound 24, (2S,4R)-4-(7,8-Difluoro-3,4-dihydrobenzo[b][1,4]oxazepin-5(2H)-yl)-1-(2,2-diphenylacetyl)pyrrolidine-2-carboxylic acid]: the inhibition constant Ki was 1.4 nM.

As to `O=C(NS(=O)(=O)C1CC1)[C@@H]1C[C@H](N2CCCCc3cc(F)c(F)cc32)CN1C(=O)C(c1ccccc1)c1ccccc1` [Compound 41, (2S,4S)—N-(Cyclopropylsulfonyl)-4-(7,8-difluoro-2,3,4,5-tetrahydro-1H-benzo[b]azepin-1-yl)-1-(2,2-diphenylacetyl)pyrrolidine-2-carboxamide], the Ki stood at 15.1 nM.

For the molecule `O=C(C(c1ccccc1)c1ccccc1)N1C[C@@H](N2CCCCc3ccccc32)C[C@H]1c1nn[nH]n1` [Compound 35, 2,2-Diphenyl-1-((2S,4S)-4-(2,3,4,5-tetrahydro-1H-benzo[b]azepin-1-yl)-2-(2H-tetrazol-5-yl)pyrrolidin-1-yl)ethan-1-one], the Ki came out at 36.2 nM.

In the case of `O=C(O)[C@@H]1C[C@H](N2CCCc3ccccc32)CN1C(=O)C(c1ccccc1)c1ccccc1` [Compound 14, (2S,4S)-4-(3,4-Dihydroquinolin-1(2H)-yl)-1-(2,2-diphenylacetyl)pyrrolidine-2-carboxylic acid], the inhibition constant Ki turned out to be 23.8 nM.

`O=C(NS(=O)(=O)C1CC1)[C@@H]1C[C@H](N2CCCOc3ccc(F)cc32)CN1C(=O)C(c1ccccc1)c1ccccc1` [Compound 37, (2S,4S)—N-(Cyclopropylsulfonyl)-1-(2,2-diphenylacetyl)-4-(7-fluoro-3,4-dihydrobenzo[b][1,4]oxazepin-5(2H)-yl)pyrrolidine-2-carboxamide]: the Ki worked out at 4.1 nM.

As for `O=C(O)[C@@H]1C[C@H](N2CCCCc3sccc32)CN1C(=O)C(c1ccccc1)c1ccccc1` [Compound 11, (2S,4S)-1-(2,2-Diphenylacetyl)-4-(5,6,7,8-tetrahydro-4H-thieno[3,2-b]azepin-4-yl)pyrrolidine-2-carboxylic acid], the Ki was 4.9 nM.

`CN1CCN([C@H]2C[C@@H](C(=O)O)N(C(=O)C(c3ccccc3)c3ccccc3)C2)Cc2ccccc21` [Compound 17, (2S,4S)-1-(2,2-Diphenylacetyl)-4-(1-methyl-1,2,3,5-tetrahydro-4H-benzo[e][1,4]diazepin-4-yl)pyrrolidine-2-carboxylic acid]: the Ki amounted to 178 nM.
